This note sets out measurements from patent publication US20240277658A1, “NLRP3 ACTIVATORS FOR USE IN THE TREATMENT OF INFECTIOUS DISEASES OR CANCER BY ACTIVATING NLRP3 INFLAMMASOME” (ALBERT-LUDWIGS-UNIVERSITÄT FREIBURG, priority 2020, published 2024).

The structures appear in SMILES notation. Where two headings read alike, the source gives them in different places.

For assay [1], the system named is NLRP3. The assay is described as follows: Inflammasome stimulation (IL-1β, LDH release) in BMDCs from NLRP3 knockout or ASC knockout mice. The assay is classed as cell-based, mouse. As to conditions: IL-1β and LDH release. For orientation: LDH in the medium is a marker of cell lysis.
Assay [2] concerns BMDCs. Description: LDH release (lytic cell death, pyroptosis) from LPS-primed BMDCs. It counts as cell-based, mouse. The settings on record: for Average (% positive control): LDH release; for cytotoxicity at 10 µM / cytotoxicity at 20 µM / cytotoxicity at 25 µM / cytotoxicity at 50 µM / cytotoxicity at 18.75 µM: Mus musculus, BMDC; for cytotoxicity at 50 µM: LPS-primed BMDCs. Put shortly:
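LDH released into medium, detected colorimetrically, served as the pyroptosis read-out in triplicate. LPS-primed (50 ng ml^−1, 3 h) murine bone marrow-derived dendritic cells received test compounds, typically 50 μM, or nigericin (5 μM), R837 or CL097 (100 μM) for 3 hours.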

For the compound `O=C(Nc1ccccc1)Nc1ccc2ncccc2c1` [EN22, 1-phenyl-3-(quinolin-6-yl)urea], the “characteristics of inflammasome activation in cells isolated from NLRP3 knockout mice” value in assay [1] was “do not occur”. The “Average (% positive control)” value in assay [2] (10 μM, positive control EN22 10 μM) was 100.000 % positive control; in assay [2] (20 μM, positive control EN22 20 μM), 100.000 % positive control; in assay [2] (25 μM, positive control EN22 25 μM), 100.000 % positive control; in assay [2] (compound 50 μM, positive control nigericin 5 μM), 95.180 % positive control; in assay [2] (section 1.2, 25 μM, positive control EN22 25 μM), 100.000 % positive control; in assay [2] (section 1.4, 18.75 μM, positive control EN22 18.75 μM), 100.000 % positive control. The cytotoxicity at 10 µM in assay [2] (10 μM, individual replicate values, read-out: LDH release (% of max.)) stood at 78.1%; in assay [2] (10 μM, read-out: Average LDH release (% of max.)), 76.8%. In addition, the cytotoxicity at 20 µM in assay [2] (20 μM, individual replicate values, read-out: LDH release (% of max.)) was found to be 49.4%; in assay [2] (20 μM, read-out: Average LDH release (% of max.)), 53.3%. Moreover, the cytotoxicity at 25 µM in assay [2] (25 μM, EN11 series table, read-out: Average LDH release (% of max.)) was found to be 50.8%; in assay [2] (25 μM, individual replicate values, EN11 series table, read-out: LDH release (% of max.)), 51.9%; in assay [2] (section 1.2, 25 μM, read-out: Average LDH release (% of max.)) it was 30%; in assay [2] (section 1.2, single replicates, 25 μM, read-out: LDH release (% of max.)), 29.6%. In addition, the cytotoxicity at 50 µM is 69.6% in assay [2] (compound 50 μM, read-out: Average LDH release (% of max.)) and 59.4% in assay [2] (single replicates, compound 50 μM, read-out: LDH release (% of max.)). The cytotoxicity at 18.75 µM in assay [2] (section 1.4, 18.75 μM, read-out: Average LDH release (% of max.)) came out at 71.3%; in assay [2] (section 1.4, single replicates, 18.75 μM, read-out: LDH release (% of max.)), 71.4%.
